Source: PubChem BioAssay AID1918935 (Molecular Pharmacology Branch, DTP, NCI, 2023)
“And” between values parts separate entries of the source, which are not always exact repeats. Identical values can stand only once. Values belong to the compound of their own block, whether it stands above or below them.

System: 324938-238-R-J1-PDC complex spheroid viability
Assay: Anticancer human tumor 324938-238-R-J1-PDC patient-derived bladder carcinoma cell line growth inhibition
Settings: for viability, T/C: stronger effect = lower value
In short: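 Multicellular complex spheroids of tumor cells with human endothelial cells (HUVEC) and mesenchymal stem cells; the LSD1 inhibitor iadademstat was combined with standard-of-care or investigational agents. Top concentration at or near clinical Cmax, half-log dilutions; final DMSO ≤0.25%.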

[1] = curve of first compound, second compound 0.1 µM
[2] = curve of first compound, second compound 0.316 µM
[3] = curve of first compound, second compound 1 µM
[4] = curve of first compound, second compound 3.16 µM
[5] = curve of first compound, second compound 10 µM
[6] = second compound 0.1 µM, first compound 0.00949 µM
[7] = second compound 0.1 µM, first compound 0.03 µM
[8] = second compound 0.1 µM, first compound 0.0949 µM
[9] = second compound 0.1 µM, first compound 0.3 µM
[10] = second compound 0.1 µM, first compound 0.949 µM
[11] = second compound 0.1 µM, first compound 3 µM
[12] = second compound 0.316 µM, first compound 0.00949 µM
[13] = second compound 0.316 µM, first compound 0.03 µM
[14] = second compound 0.316 µM, first compound 0.0949 µM
[15] = second compound 0.316 µM, first compound 0.3 µM
[16] = second compound 0.316 µM, first compound 0.949 µM
[17] = second compound 0.316 µM, first compound 3 µM
[18] = second compound 1 µM, first compound 0.00949 µM
[19] = second compound 1 µM, first compound 0.03 µM
[20] = second compound 1 µM, first compound 0.0949 µM
[21] = second compound 1 µM, first compound 0.3 µM
[22] = second compound 1 µM, first compound 0.949 µM
[23] = second compound 1 µM, first compound 3 µM
[24] = second compound 3.16 µM, first compound 0.00949 µM
[25] = second compound 3.16 µM, first compound 0.03 µM
[26] = second compound 3.16 µM, first compound 0.0949 µM
[27] = second compound 3.16 µM, first compound 0.3 µM
[28] = second compound 3.16 µM, first compound 0.949 µM
[29] = second compound 3.16 µM, first compound 3 µM
[30] = second compound 10 µM, first compound 0.00949 µM
[31] = second compound 10 µM, first compound 0.03 µM
[32] = second compound 10 µM, first compound 0.0949 µM
[33] = second compound 10 µM, first compound 0.3 µM
[34] = second compound 10 µM, first compound 0.949 µM
[35] = second compound 10 µM, first compound 3 µM
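Also: spheroids also contain HUVEC and human MSCs and agents combined with iadademstat; spheroids exposed to agents for 7 days before readout.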

IC50 (curve of compound): 2.58 nM and 1.79 nM
SMILES: CC(C)CC(NC(=O)CNC(=O)c1cc(Cl)ccc1Cl)B1OC(=O)CC(CC(=O)O)(C(=O)O)O1 (stereo unspecified)
viability, T/C (compound 0.000316 µM): 104% and 111% | viability, T/C (compound 0.001 µM): 106% and 77.7% | viability, T/C (compound 0.00316 µM): 38.2% and 23.3% | viability, T/C (compound 0.01 µM): 5.09% and 2.42% | viability, T/C (compound 0.0316 µM): 0.23% and 0.77% | viability, T/C (compound 0.1 µM): 0.23% and 0.24%

SMILES: CCN(c1cc(-c2ccc(CN3CCOCC3)cc2)cc(C(=O)NCc2c(C)cc(C)[nH]c2=O)c1C)C1CCOCC1 + NC1CC1c1ccc(-c2cccc(O)c2)cc1
IC50 [1]: > 3000 nM | IC50 [2]: > 3000 nM | IC50 [3]: > 3000 nM | IC50 [4]: > 3000 nM | IC50 [5]: > 3000 nM | viability, T/C [6]: 91.3% | viability, T/C [7]: 91.9% | viability, T/C [8]: 89.8% | viability, T/C [9]: 79.1% | viability, T/C [10]: 89% | viability, T/C [11]: 80.1% | viability, T/C [12]: 84.4% | viability, T/C [13]: 80.1% | viability, T/C [14]: 80.3% | viability, T/C [15]: 81.6% | viability, T/C [16]: 85.1% | viability, T/C [17]: 79.8% | viability, T/C [18]: 74.2% | viability, T/C [19]: 77.2% | viability, T/C [20]: 72.6% | viability, T/C [21]: 72.9% | viability, T/C [22]: 76.9% | viability, T/C [23]: 78.6% | viability, T/C [24]: 79% | viability, T/C [25]: 79.3% | viability, T/C [26]: 77.1% | viability, T/C [27]: 77.5% | viability, T/C [28]: 76.6% | viability, T/C [29]: 74.2% | viability, T/C [30]: 66.4% | viability, T/C [31]: 77% | viability, T/C [32]: 66.8% | viability, T/C [33]: 62.8% | viability, T/C [34]: 66.5% | viability, T/C [35]: 68.1%

IC50 (curve of compound): 32.8 nM and 24.8 nM
SMILES: Nc1ncn(C2CC(O)C(CO)S2)c(=O)n1 (stereo unspecified)
viability, T/C (compound 0.000949 µM): 97.4% and 106% | viability, T/C (compound 0.003 µM): 88.2% and 90.7% | viability, T/C (compound 0.00949 µM): 72.2% and 69.6% | viability, T/C (compound 0.03 µM): 51.5% and 46.5% | viability, T/C (compound 0.0949 µM): 33.2% and 27.5% | viability, T/C (compound 0.3 µM): 22.2% and 17.4%

IC50 (curve of compound): 8.59 nM and 4.69 nM
SMILES: O=C(C=Cn1cnc(-c2cc(C(F)(F)F)cc(C(F)(F)F)c2)n1)NNc1cnccn1
viability, T/C (compound 0.00316 µM): 85.4% and 60.8% | viability, T/C (compound 0.01 µM): 44.7% and 28.6% | viability, T/C (compound 0.0316 µM): 17.7% and 14.8% | viability, T/C (compound 0.1 µM): 7.73% and 4.52% | viability, T/C (compound 0.316 µM): 4.23% and 3.45% | viability, T/C (compound 1 µM): 2.35% and 1.64%

SMILES: COc1cc(C2c3cc4c(cc3C(OC3OC5COC(C)OC5C(O)C3O)C3COC(=O)C23)OCO4)cc(OC)c1O (stereo unspecified) + NC1CC1c1ccc(-c2cccc(O)c2)cc1
IC50 [1]: 61.7 nM | IC50 [2]: 60.3 nM | IC50 [3]: 45.8 nM | IC50 [4]: 46.5 nM | IC50 [5]: 38.2 nM | viability, T/C [6]: 82.3% | viability, T/C [7]: 74.6% | viability, T/C [8]: 35.1% | viability, T/C [9]: 18.9% | viability, T/C [10]: 20.9% | viability, T/C [11]: 10.6% | viability, T/C [12]: 69.8% | viability, T/C [13]: 67.1% | viability, T/C [14]: 38.4% | viability, T/C [15]: 22.2% | viability, T/C [16]: 17.6% | viability, T/C [17]: 8.16% | viability, T/C [18]: 67.9% | viability, T/C [19]: 60% | viability, T/C [20]: 34% | viability, T/C [21]: 19.6% | viability, T/C [22]: 19.2% | viability, T/C [23]: 7.9% | viability, T/C [24]: 74% | viability, T/C [25]: 59% | viability, T/C [26]: 35.6% | viability, T/C [27]: 23.3% | viability, T/C [28]: 17.3% | viability, T/C [29]: 11.7% | viability, T/C [30]: 73.5% | viability, T/C [31]: 54.8% | viability, T/C [32]: 34.3% | viability, T/C [33]: 27.5% | viability, T/C [34]: 16.8% | viability, T/C [35]: 11.7%
